The values below come from ChEMBL document CHEMBL4312024, “Optimization of piperazine-derived ureas privileged structures for effective antiadenovirus agents” (Eur J Med Chem, 2020).

For data set [1], the system named is Human adenovirus 5. As to the kind of experiment: Antiviral activity against Human adenovirus 5 infected in HEK293beta5 cells coexpressing GFP assessed as inhibition of plaque formation at 10 uM incubated for 7 days relative to control. It counts as functional. Conditions: Human mastadenovirus C, 168 h.
The subject of data set [2] is Human adenovirus 5. As to the kind of experiment: Antiviral activity against Human adenovirus 5 infected in HEK293beta5 cells coexpressing GFP assessed as inhibition of plaque formation incubated for 7 days. The format is functional, organism-based. Conditions: Human mastadenovirus C, 168 h.
A short description of data set [3]: Selectivity Index, ratio of CC50 for human A549 cells to IC50 for Human adenovirus 5 infected in HEK293beta5 cells coexpressing GFP. The format is toxicity, cell-based. The conditions noted are these: read-out: Ratio CC50/IC50.
In data set [4] the test system is Human adenovirus 5. As to the kind of experiment: Antiviral activity against Human adenovirus 5 infected in A549 cells assessed as fold reduction in virus yield at 50 uM incubated for 48 hrs by endpoint dilution method relative to control. The format is functional.
The test system of data set [5] is Human adenovirus 5. Description: Antiviral activity against Human adenovirus 5 infected in A549 cells assessed as nuclear associated viral DNA copies at 50 uM incubated for 45 mins by qRT-PCR analysis. The format is functional, organism-based. (In general: In qPCR the cycle at which signal appears reflects the starting amount.)
Data set [6] relates to Human adenovirus 5. As to the kind of experiment: Antiviral activity against Human adenovirus 5 infected in A549 cells assessed as decrease in […] cDNA copies at 50 uM incubated for 24 hrs by qRT-PCR analysis. The format is functional, organism-based.
In data set [7] the test system is Human adenovirus 5. As to the kind of experiment: Antiviral activity against Human adenovirus 5 infected in A549 cells assessed as decrease in […] cDNA copies incubated for 24 hrs by qRT-PCR analysis. The format is functional, organism-based.
In the next data set the test system is Human betaherpesvirus 5. As to the kind of experiment: Antiviral activity against Human cytomegalovirus infected in MRC5 cells assessed as decrease in viral DNA copies at 50 uM incubated for 72 hrs by qRT-PCR analysis. The format is functional, organism-based.
Data set [8] in a line: Stability in Syrian hamster serum assessed as parent compound remaining at 1 uM measured immediately by LC-MS/MS analysis. It counts as ADME, cell-free, Mesocricetus auratus. Conditions: read-out: Stability.
Data set [9] can be described thus: Stability in Syrian hamster serum assessed as parent compound remaining at 1 uM measured after 15 mins by LC-MS/MS analysis. The format is ADME, cell-free, Mesocricetus auratus. The conditions noted are these: for remaining at 0.25 h, 1 µM: read-out: Stability.
Data set [10] can be described thus: Stability in Syrian hamster serum assessed as parent compound remaining at 1 uM measured after 30 mins by LC-MS/MS analysis. Conditions: for remaining at 0.5 h, 1 µM: read-out: Stability. The format is ADME, cell-free, Mesocricetus auratus.
A short description of data set [11]: Stability in Syrian hamster serum assessed as parent compound remaining at 1 uM measured after 60 mins by LC-MS/MS analysis. It counts as ADME, cell-free, Mesocricetus auratus. The conditions noted are these: read-out: Stability.
A short description of data set [12]: Stability in Syrian hamster serum assessed as parent compound remaining at 1 uM measured after 120 mins by LC-MS/MS analysis. The format is ADME, cell-free, Mesocricetus auratus. Conditions: read-out: Stability.
The nature of data set [13]: Cytotoxicity against human A549 cells assessed as reduction in cell viability incubated for 48 hrs by alamarBlue assay. The format is cell-based.

Structures are written as SMILES. The source made the active and inactive calls. The rule behind the calls is not given here.

Turning to `CC1CN(C(=O)Cc2ccccc2)CCN1C(=S)Nc1cc(C(F)(F)F)cc(C(F)(F)F)c1` (stereo not drawn), the inhibition at 10 µM with Human adenovirus 5 [1] was 73.4%. Further, the IC50 in the data set with Human adenovirus 5 [2] came out at 5.1 µM. Also, the selectivity ratio in [3] stood at 25.4. For the same compound, the “fold change (FC)” value in the data set with Human adenovirus 5 [4] is 33.4. The result in the data set on Human adenovirus 5 [5], with Human adenovirus 5 [6] and with Human betaherpesvirus 5 was Active. Further, in the data set with Human adenovirus 5 [7], the Activity entry is “Dose-dependent effect”. In addition, the remaining at 0 min, 1 µM in data set [8] was found to be 100%. For the same compound, the remaining at 0.25 h, 1 µM in data set [9] was found to be 109%. In data set [10], the remaining at 0.5 h, 1 µM came to 107%. Further, the remaining at 1 h, 1 µM in data set [11] came out at 96.5%. In addition, the remaining at 2 h, 1 µM in data set [12] stood at 92.8%.

In the case of `CC1CN(C(=O)Cc2ccccc2)CCN1C(=S)Nc1ccc([N+](=O)[O-])cc1` (stereo not drawn), the inhibition at 10 µM in the data set with Human adenovirus 5 [1] worked out at 98.2%. Further, in [13], the CC50 at 48 h amounted to 210 µM. Further, in the data set with Human adenovirus 5 [2], the IC50 was 2 µM. Besides, in [3], the selectivity ratio came out at 105. For the same compound, the “fold change (FC)” value in the data set on Human adenovirus 5 [4] is reported as 25.6. Also, the result in the data set with Human adenovirus 5 [5] and in the data set with Human betaherpesvirus 5 was Active. Also, in the data set with Human adenovirus 5 [6], the outcome was inactive. Besides, the remaining at 0 min, 1 µM in [8] amounted to 100%. The Stability turned out to be 142.7% in [9] (0.25 h, 1 µM) and 139.4% in [10] (0.5 h, 1 µM). Also, the remaining at 1 h, 1 µM in [11] was 114%. Moreover, the remaining at 2 h, 1 µM in data set [12] is 107%.

For the compound `CC1CN(C(=O)OC(C)(C)C)CCN1C(=S)Nc1ccc(F)cc1` (stereo not drawn), the inhibition at 10 µM with Human adenovirus 5 [1] was found to be 92.9%. Further, the CC50 at 48 h in data set [13] stood at 200 µM. The half-inhibitory concentration (IC50) with Human adenovirus 5 [2] is 1.8 µM. Besides, the selectivity ratio in [3] was determined as 111. The “fold change (FC)” value with Human adenovirus 5 [4] came out at 12.1. In the data set on Human adenovirus 5 [5], the outcome was Active. Also, the remaining at 0 min, 1 µM in data set [8] is 100%. The remaining at 0.25 h, 1 µM in [9] is 97.8%. In [10], the remaining at 0.5 h, 1 µM was 102%. Besides, in [11], the remaining at 1 h, 1 µM is 86.5%. Besides, the remaining at 2 h, 1 µM in [12] came to 75.4%.

Consider `CC[C@H](C)[C@@H]1NC(=O)CNC(=O)[C@@H]2Cc3c([nH]c4cc(O)ccc34)[S@+]([O-])C[C@H](NC(=O)CNC1=O)C(=O)N[C@@H](CC(N)=O)C(=O)N1C[C@H](O)C[C@H]1C(=O)N[C@@H]([C@@H](C)[C@@H](O)CO)C(=O)N2`, for which the Activity entry in the data set on Human adenovirus 5 [7] was “Dose-dependent effect”.

The inhibition is the share of the control response that was lost under treatment. By IC50 is commonly meant the concentration needed to halve the response being measured. What is called CC50 is the concentration at which the toxic effect on the cells reaches its halfway point.
